Consider one molecule from patent US20210283176A1, “CALCIUM BINDER FOR USE IN PREVENTING STILLBIRTH” (Nutreco IP Assets B.V, priority 2017, published 2021).

For this test, the system named is sows. The note with it: phosphoric acid 0.01 mol/liter (1 g/L), 25 sows, control 1.6 (24 sows). Here is the method: A calcium binder (phosphoric acid, PhA)) was added in a concentration of 0.01 mol/liter (corresponding to 1 g/L of phosphoric acid). The diets fed to the sows were the same.

Regarding `O=P(O)(O)O` [PhA, phosphoric acid], the “Stillborn piglets, #” value was determined as 1.1.
